Reference: patent US20230355605A1, “DRUG FOR ENHANCING FIBRINOLYTIC SYSTEM, AND USE THEREFOR” (priority 2020, published 2023)

Legend:
[1] = test system: mouse model of bleomycin-induced pulmonary fibrosis; assay: Mouse model of bleomycin-induced pulmonary fibrosis; type: in vivo
Protocol: The improvement effect of the present compound on pulmonary fibrosis (remodeling after lung damage) was evaluated using a mouse model of bleomycin-induced pulmonary fibrosis. […] Because of similarity of histopathological changes to pulmonary fibrosis in humans, this mouse model is widely used for the evaluation of the drug efficacy.
To a fibrosis mouse model (fibrosis model group) given a single dose of bleomycin (1.2 mg/mL), the present compound (0.75 mg/kg/day) was orally administered for 21 days (present compound administration group, n = 9), and biochemical analysis of the lungs and measurement of clinical conditions of the lungs were performed on day 22. For comparison, instead of the present compound, the solvent used to dissolve the present compound was administered to a fibrosis model group in the same manner (vehicle group, n = 10), and biochemical analysis and measurement of clinical conditions of the lungs were performed. As a positive control group, a dexamethasone administration group (0.25 mg/kg administration, n = 9) was used. The biochemical analysis was performed using lung hydroxyproline values as an index. The clinical conditions of the lungs were evaluated by performing Masson’s trichrome staining and calculating Ashcroft scores according to a report of Ashcroft et al. (Ashcroft T et al., J Clin Pathol, 1988; 41:467). The clinical conditions were confirmed by comparing a normal mouse group (normal group, n = 10) with the vehicle group (n = 10), and the improvement effect of the present compound on pulmonary fibrosis was evaluated by comparing the vehicle group (n = 10) with the present compound administration group (n = 9). Differences between the mean values of the groups were tested by the Bonferroni selected pairs test using Prism 4 (GraphPad Software).
Table 1 and FIG. 3(A) and FIG. 3(B) show the results of comparisons of the lung hydroxyproline values and the Ashcroft scores in the groups. The mean values of the groups are expressed as mean±SD, and examination was performed at a 5% significance level.

CML patients = conditions: according to the NCCN guidelines; cited from earlier work
[2] = test system: cynomolgus monkey model of saphenous arterial thrombus; assay: Cynomolgus monkey model of saphenous arterial thrombus (PIT model); type: in vivo; conditions: oral administration to monkeys
Protocol: The thrombus formation inhibitory effect of the present compound was evaluated using a cynomolgus monkey model of saphenous arterial thrombus (PIT model) .
Before the procedure, the present compound suspended in a 0.5% CMC-Na aqueous solution was orally administered to test groups of cynomolgus monkeys at dosages of 0.1, 0.3, 1, and 3 mg/kg. […] A light irradiation probe was placed on a saphenous artery of each cynomolgus monkey to cause thrombus formation by applying green light of 540 nm for 20 minutes at the time of intravenously administering rose bengal (20 mg/kg). A decrease in blood flow due to this thrombus formation was measured with a pulse Doppler blood flowmeter, and the thrombus formation inhibitory effect of the present compound was evaluated by measuring the occlusion time on the first day and the cumulative occlusion time.

rats = assay: 4-week repeated oral dose toxicity study in rats; type: in vivo; conditions: rats; study details of the similar compound not given
[3] = test system: COVID-19 patients with moderate to severe lung damage; conditions: 13 COVID-19 patients, inhaled; cited from earlier work
[4] = day 22, present compound 0.75 mg/kg/day oral 21 days, dexamethasone 0.25 mg/kg, mean±SD

With `C[C@@H]1C[C@H]2[C@@H]3CCC4=CC(=O)C=C[C@]4(C)[C@@]3(F)[C@@H](O)C[C@]2(C)[C@@]1(O)C(=O)CO` [Dexamethazone, dexamethasone, reference compound] the “Ashcroft score compared with vehicle group” value ([1]; 5% significance level) was “significantly lower”, the “lung hydroxyproline value compared with vehicle group” value ([1]; 5% significance level) was “no significant difference” and the Ashcroft score [1, 4] was 2.3±0.1. For the same molecule, the Lung hydroxyproline value [1, 4] was 71.0±6.7 µg/left lung.

In the case of `Cc1ccc(NC(=O)c2ccc(CN3CCN(C)CC3)cc2)cc1Nc1nccc(-c2cccnc2)n1` [imatinib], the “patients who could maintain DMR for more than 2 years after 3 years of treatment” value (CML patients) is listed as “about 5 % of all CML cases”.

Molecule `O=C(Nc1ccc(Cl)cc1C(=O)O)c1cccc(-c2ccccc2)c1` [similar compound, 2-([biphenyl-3-ylcarbonyl]amino)-5-chlorobenzoic acid, reference compound] has a minimum effective dosage [2] of 0.3 mg/kg and a no-observed-adverse-effect level (rats) of 20 mg/kg/day.

B1: plasminogen: inhaled plasminogen given to COVID-19 patients in the clinical study by Wu et al. (protein, UniProt P00747 20-810, looked up)
Plasminogen: EPLDDYVNTQGASLFSVTKKQLGAGSIEECAAKCEEDEEFTCRAFQYHSKEQQCVIMAENRKSSIIIRMRDVVLFEKKVYLSECKTGNGKNYRGTMSKTKNGITCQKWSSTSPHRPRFSPATHPSEGLEENYCRNPDNDPQGPWCYTTDPEKRYDYCDILECEEECMHCSGENYDGKISKTMSGLECQAWDSQSPHAHGYIPSKFPNKNLKKNYCRNPDRELRPWCFTTDPNKRWELCDIPRCTTPPPSSGPTYQCLKGTGENYRGNVAVTVSGHTCQHWSAQTPHTHNRTPENFPCKNLDENYCRNPDGKRAPWCHTTNSQVRWEYCKIPSCDSSPVSTEQLAPTAPPELTPVVQDCYHGDGQSYRGTSSTTTTGKKCQSWSSMTPHRHQKTPENYPNAGLTMNYCRNPDADKGPWCFTTDPSVRWEYCNLKKCSGTEASVVAPPPVVLLPDVETPSEEDCMFGNGKGYRGKRATTVTGTPCQDWAAQEPHRHSIFTPETNPRAGLEKNYCRNPDGDVGGPWCYTTNPRKLYDYCDVPQCAAPSFDCGKPQVEPKKCPGRVVGGCVAHPHSWPWQVSLRTRFGMHFCGGTLISPEWVLTAAHCLEKSPRPSSYKVILGAHQEVNLEPHVQEIEVSRLFLEPTRKDIALLKLSSPAVITDKVIPACLPSPNYVVADRTECFITGWGETQGTFGAGLLKEAQLPVIENKVCNRYEFLNGRVQSTELCAGHLAGGTDSCQGDSGGPLVCFEKDKYILQGVTSWGLGCARPNKPGVYVRVSRFVTWIEGVMRNN
For B1, the lung damage [3] is listed as “rapid improvement in lung damage”.

B2: plasmin: as printed for NPL 27; probably the inhaled plasminogen of b10 (protein, UniProt P00747 20-810, looked up)
Plasminogen: EPLDDYVNTQGASLFSVTKKQLGAGSIEECAAKCEEDEEFTCRAFQYHSKEQQCVIMAENRKSSIIIRMRDVVLFEKKVYLSECKTGNGKNYRGTMSKTKNGITCQKWSSTSPHRPRFSPATHPSEGLEENYCRNPDNDPQGPWCYTTDPEKRYDYCDILECEEECMHCSGENYDGKISKTMSGLECQAWDSQSPHAHGYIPSKFPNKNLKKNYCRNPDRELRPWCFTTDPNKRWELCDIPRCTTPPPSSGPTYQCLKGTGENYRGNVAVTVSGHTCQHWSAQTPHTHNRTPENFPCKNLDENYCRNPDGKRAPWCHTTNSQVRWEYCKIPSCDSSPVSTEQLAPTAPPELTPVVQDCYHGDGQSYRGTSSTTTTGKKCQSWSSMTPHRHQKTPENYPNAGLTMNYCRNPDADKGPWCFTTDPSVRWEYCNLKKCSGTEASVVAPPPVVLLPDVETPSEEDCMFGNGKGYRGKRATTVTGTPCQDWAAQEPHRHSIFTPETNPRAGLEKNYCRNPDGDVGGPWCYTTNPRKLYDYCDVPQCAAPSFDCGKPQVEPKKCPGRVVGGCVAHPHSWPWQVSLRTRFGMHFCGGTLISPEWVLTAAHCLEKSPRPSSYKVILGAHQEVNLEPHVQEIEVSRLFLEPTRKDIALLKLSSPAVITDKVIPACLPSPNYVVADRTECFITGWGETQGTFGAGLLKEAQLPVIENKVCNRYEFLNGRVQSTELCAGHLAGGTDSCQGDSGGPLVCFEKDKYILQGVTSWGLGCARPNKPGVYVRVSRFVTWIEGVMRNN
For B2, the lung damage [3] is listed as “improved”.
